Tests used:
VEGFR kinases = details: not dependent on a specific ligand; cited from earlier work
[1] = Hazard classification, internal workspace limit; details: classified as being hazardous

| internal workspace limit [1] [mg/m^3] | SMILES | inhibition of VEGFR kinases (VEGFR kinases) |
| --- | --- | --- |
| – | Clc1ccc(Nc2nnc(Cc3ccncc3)c3ccccc23)cc1 [(4-chlorophenyl)[4-(4-pyridylmethyl)-phthalazin-1-yl]] | inhibitor of all three VEGFR kinases |
| 0.1 | Clc1ccc(Nc2nnc(Cc3ccncc3)c3ccccc23)cc1 [pynasunate, (4-chlorophenyl)[4-(4-pyridylmethyl)-phthalazin-1-yl]ammonium hydrogen succinate] | – |
